Patent US20250171423A1, “PHARMACEUTICAL COMPOUNDS FOR THE TREATMENT OF COMPLEMENT MEDIATED DISORDERS” (Achillion Pharmaceuticals, Inc., priority 2020, published 2025)
pIC50: −log10 of the molar value.

molecular target: T1, Human complement C1s enzyme (Homo sapiens, UniProt P09871); experiment: Human C1s Enzyme Assay; type: biochemical; conditions: human C1s 1.16 nM, 5 min preincubation, substrate Z-L-Lys-SBzl 100 μM, A405; read-out: C1s Protease Activity
T1 construct: purified from human serum, Complement Technology, Inc; purchased Complement Technology, Inc; host or cells: human serum
T1 sequence (P09871 438-688 limits assumed): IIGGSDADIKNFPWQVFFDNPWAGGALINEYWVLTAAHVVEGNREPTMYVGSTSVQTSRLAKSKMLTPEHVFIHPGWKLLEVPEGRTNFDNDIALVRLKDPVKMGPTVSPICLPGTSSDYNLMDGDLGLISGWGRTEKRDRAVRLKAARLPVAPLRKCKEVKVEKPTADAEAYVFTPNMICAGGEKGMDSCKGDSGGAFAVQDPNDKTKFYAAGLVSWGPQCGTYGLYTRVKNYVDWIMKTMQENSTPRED
T1 sequence (P09871 16-437 partner limits assumed): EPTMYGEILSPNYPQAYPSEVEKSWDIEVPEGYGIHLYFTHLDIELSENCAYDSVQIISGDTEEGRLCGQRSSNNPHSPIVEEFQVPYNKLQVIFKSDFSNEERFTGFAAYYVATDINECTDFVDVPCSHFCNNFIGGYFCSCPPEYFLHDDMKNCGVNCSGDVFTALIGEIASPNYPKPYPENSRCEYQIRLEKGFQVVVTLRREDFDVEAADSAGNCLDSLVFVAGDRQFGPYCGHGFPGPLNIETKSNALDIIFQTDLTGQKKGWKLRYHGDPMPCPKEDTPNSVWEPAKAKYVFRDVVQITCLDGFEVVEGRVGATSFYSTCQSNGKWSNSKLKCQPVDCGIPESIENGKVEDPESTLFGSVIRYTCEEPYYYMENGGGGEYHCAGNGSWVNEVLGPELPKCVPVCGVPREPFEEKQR
Method in brief: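 IC50 values were fitted by nonlinear regression to rates measured as A405 every 30 s for 30 min. The thioester substrate Z-L-Lys-SBzl and Ellman's reagent were each at 100 μM. Serum-derived C1s at 1.16 nM final had 5 min of room-temperature preincubation with compound (pH 7.5 Tris buffer, 1 M NaCl).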

| Structure (SMILES) | pIC50 |
| --- | --- |
| N=C(N)c1csc(CNC(=O)C23CCC(CC2)N3C(=O)CNC(=O)c2ccc(Oc3ccccc3)cc2)c1 [Compound 16, N-((4-carbamimidoylthiophen-2-yl)methyl)-7-((4-phenoxybenzoyl)glycyl)-7-azabicyclo[2.2.1]heptane-1-carboxamide] | 6.00 to 7.00 |
| CC(CCOc1ccccc1)C(=O)NCC(=O)N1CC2(C[C@H]1C(=O)NCc1cc(C(=N)N)cs1)OCCO2 (stereo partly drawn) [Compound 88, (8S)-N-((4-carbamimidoylthiophen-2-yl)methyl)-7-((2-methyl-4-phenoxybutanoyl)glycyl)-1,4-dioxa-7-azaspiro[4.4]nonane-8-carboxamide] | > 7.00 |
| C[C@@]12C[C@@H]1N(C(=O)CNC1(c3ccc(Oc4ccccc4)cc3)COC1)[C@H](C(=O)NCc1cc(C(=N)N)cs1)C2 [Compound 249, (1S,3S,5S)-N-[(4-carbamimidoylthiophen-2-yl)methyl]-5-methyl-2-(2-{[3-(4-phenoxyphenyl)oxetan-3-yl]amino}acetyl)-2-azabicyclo[3.1.0]hexane-3-carboxamide] | > 7.00 |
| N=C(N)c1csc(CNC(=O)[C@@H]2CC3(COC3)CN2C(=O)CNC(=O)c2ccc(Oc3ccccc3)cc2)c1 [Compound 262, (S)-N-((4-carbamimidoylthiophen-2-yl)methyl)-6-((4-phenoxybenzoyl)glycyl)-2-oxa-6-azaspiro[3.4]octane-7-carboxamide] | > 7.00 |
| N=C(N)c1csc(CNC(=O)[C@@H]2C[C@]3(CCO3)CN2C(=O)CNC(=O)c2ccc(Oc3ccccc3)cc2)c1 [Compound 195, (4S,7S)-N-((4-carbamimidoylthiophen-2-yl)methyl)-6-((4-phenoxybenzoyl)glycyl)-1-oxa-6-azaspiro[3.4]octane-7-carboxamide] | > 7.00 |

Second part, the molecule after the results:

| pIC50 | Structure (SMILES) |
| --- | --- |
| > 7.00 | N=C(N)c1csc(CNC(=O)[C@@H]2C[C@@H](N3CCCC3)CN2C(=O)CNC(=O)c2ccc(Oc3ccccc3)cc2)c1 [Compound 48, (3′R,5'S)-N-((4-carbamimidoylthiophen-2-yl)methyl)-1′-((4-phenoxybenzoyl)glycyl)-[1,3′-bipyrrolidine]-5′-carboxamide] |
| > 7.00 | C[C@@]12C[C@@H]1N(C(=O)CN1Cc3cc(Oc4ccccc4)ccc3C1=O)[C@H](C(=O)NCc1cc(C(=N)N)cs1)C2 [Compound 101, (1S,3S,5S)-N-((4-carbamimidoylthiophen-2-yl)methyl)-5-methyl-2-(2-(1-oxo-5-phenoxyisoindolin-2-yl)acetyl)-2-azabicyclo[3.1.0]hexane-3-carboxamide] |
| > 7.00 | C[C@@H](NC(=O)[C@@H]1CC2(CN1C(=O)CNC(=O)c1ccccc1)OCCO2)c1cc(C(=N)N)cs1 [Compound 264, (S)-7-(benzoylglycyl)-N-((R)-1-(4-carbamimidoylthiophen-2-yl)ethyl)-1,4-dioxa-7-azaspiro[4.4]nonane-8-carboxamide] |
| > 7.00 | CS(=O)(=O)[C@@H]1C[C@@H](C(=O)NCc2cc(C(=N)N)cs2)N(C(=O)CNC(=O)c2ccc(Oc3ccccc3)cc2)C1 [Compound 46, (2S,4R)-N-((4-carbamimidoylthiophen-2-yl)methyl)-4-(methylsulfonyl)-1-((4-phenoxybenzoyl)glycyl)pyrrolidine-2-carboxamide] |
| > 7.00 | N=C(N)c1csc(CNC(=O)[C@@H]2C[C@@H](C3CCCC3)CN2C(=O)CNC(=O)c2ccc(Oc3ccccc3)cc2)c1 [Compound 54, (2S,4S)-N-((4-carbamimidoylthiophen-2-yl)methyl)-4-cyclopentyl-1-((4-phenoxy-benzoyl)glycyl)pyrrolidine-2-carboxamide] |
| > 7.00 | C[C@@H](NC(=O)[C@@H]1C[C@@H](S(C)(=O)=O)CN1C(=O)CNC(=O)c1ccc(Oc2ccccc2)cc1)c1cc(C(=N)N)cs1 [Compound 192, (2S,4R)-N-((R)-1-(4-carbamimidoylthiophen-2-yl)ethyl)-4-(methylsulfonyl)-1-((4-phenoxybenzoyl)glycyl)pyrrolidine-2-carboxamide] |
